According to publication PMC7311950, “Potent Tetrahydroquinolone Eliminates Apicomplexan Parasites” (Frontiers in Cellular and Infection Microbiology, 2020):

Key:
[1] = PPB (human); assay type: in vitro ADME; conditions: plasma
[2] = test system: Human Foreskin Fibroblast (HFF); assay: Cytotoxicity assay, WST-1 cell proliferation reagent on HFF; assay type: cell-based; conditions: Homo sapiens, Fibroblast; supplement summary
Description: Toxicity assays used WST-1 cell proliferation reagent (Roche) as in Fomovska et al. ([2012a]). HFF were grown on a flat, clear-bottomed, black 96-well plate. Confluent HFF were treated with inhibitory compounds at concentrations of 10 and 50 μM. Compounds were diluted in IMDM-C, and 20 μL were added to each designated well, with triplicates for each condition. A gradient with 2-folddecreasing concentrations of DMSO from 10 to 0% in colorless, translucent IMDM-C was used as a control. The plate was incubated for 72 h at 37°C. Ten microlitre WST-1 reagent (Roche) were added to each well. Cells were incubated for 30–60 min. Absorbance was read using a fluorimeter at 420 nm. A higher degree of color change (and absorbance) indicated mitochondrial activity and cell viability.

[3] = Caco-2 permeability assay; assay type: in vitro ADME; conditions: human, A-B, read-out: Caco-2 permeability PappA-B
[4] = test system: T. gondii RH-YFP tachyzoites; assay: Synergy studies with RH strain YFP tachyzoites; assay type: cell-based, Toxoplasma gondii
Description: Atovaquone and pyrimethamine were used to test whether they are synergistic with JAG21. Serial dilutions of the combination of JAG21 and either atovaquone or pyrimethamine were used in an in vitro challenge assay as described above. The EC50 of each compound and the combination of two compounds were determined. The effect of the combination of drugs was calculated with the following formula:C= [A]c/[A]a+[B]c/[B]a. If C is lower than 1, the two compounds tested have synergistic effect; if C is >1, the two compounds tested have antagonist effect and if C is 1 they are additive.

[5] = test system: T. gondii RPS13Δ; assay: RPS13Δ infection of interferon γ receptor knockout mice; assay type: in vivo, Toxoplasma gondii; conditions: mice to start 5 (Tafenoquine), 5 (JAG21)
Description: In pilot studies, herein, interferon γ receptor knockout mice that were not treated were observed following infection. At 7 and at 14 days following infection, spleen, and liver were removed and immune peroxidase stained. At 14 days a group of mice were treated with anhydrotetracycline and when a subset of these mice died, their spleen and liver were removed and immune peroxidase stained.
As in the pilot studies, this RPS13 Δ parasite also was used to infect interferon γ receptor knockout mice in a treatment study. In this separate study, groups of mice were infected with RPS13 Δ. They were treated with tafenoquine on day−1, or JAG21 for 14 days 2 h after infection, or the two together with tafenoquine on day−1 and JAG21 for the first 14 days, or with diluent only for 14 days, as described above. For the initial 14 days, no tetracycline was administered. After that time tetracycline was administered. Mice were observed each day. At the time they appeared to have substantial illness or at the termination of the experiment they were euthanized, tissues fixed in formalin and stained with hematoxylin and eosin or immunoperoxidase stained and parasite burden was assessed.

[6] = test system: T. gondii RH tachyzoites; assay: RH YFP challenge, oral nanoformulation of JAG21; assay type: in vivo, Toxoplasma gondii; conditions: for parasite burden reduced: peritoneal fluid 5 days later
Description: JAG21 was prepared using hydroxyethyl cellulose (HEC) and Tween 80. Briefly, this dispersant solution containing 5 mg/mL HEC and 2 mg/mL Tween 80 in water was prepared. Solid JAG21 was added to 20 mg/mL, and the dispersion was sonicated for 60 s using a Sonics vc50 probe-tip sonicator set to 20 kHz to homogenize. Sonication was performed at room temperature. Aliquots of the homogeneous dispersion were frozen and lyophilized using a VirTis AdVantage freeze drier. These aliquots were stored at room temperature for 5–6 months. Prior to dosing, aliquots were reconstituted using water. Controls containing no JAG21 were also prepared. Following reconstitution with water, the dispersion was imaged using a Nikon ECLIPSE E200 optical microscope set to 40x magnification. The average particle size of the JAG21 dispersion in HEC/Tween 80 was determined using an in-house image analysis program. This novel method to stably formulate JAG21 was discovered after all other studies were completed and this was the last experiment in this manuscript performed as a consequence.
For studies of the nano formulated JAG 21, this was administered for 1 or 3 days by gavage in the doses shown in the results section. These C57BL6 background mice received 2000 RH tachyzoites IP. on day the first day of the experiment and peritoneal fluid was collected 5 days later to quantitate fluorescence and numbers of parasites.

[7] = target: T1, bovine cytochrome bc1 (Bos taurus, UniProt P00157); assay: Bovine cytochrome bc1 activity assay; assay type: biochemical; conditions: read-out: Bovine Cytbc1 activity inhibition
T1 construct: Whole fresh bovine heart was collected after slaughter and transported in ice; from tissue; host or cells: bovine heart mitochondria; DDM-solubilised, DEAE-Sepharose and Sephacryl-S300 purified
Description: Bovine cytochrome bc1 inhibition assay was carried out in 50 mM KPi pH 7.5, 2 mM EDTA, 10 mM KCN, 30 μM equine heart cytochrome c (Sigma Aldrich), and 2.5 nM bovine cytochrome bc1 at room temperature. 20 mM inhibitors dissolved in DMSO were added to the assay at a desired concentration without prior incubation. […] The reaction was initiated by the addition of 50 μM decylubiquinol (Abcam). The reduced cytochrome c was monitored by the different absorption between 550 and 542 nm using extinction coefficient of 18.1 mM^−1 cm^−1 in a SPECTRAmax Plus 384 UV-visible Spectrometer. The initial kinetic rate is determined as a zero-order reaction and used as the specific activity of cytochrome bc1.

[8] = target: CYP450 2C9 (Homo sapiens, UniProt P11712); assay: CYP450 inhibition, 2C9; assay type: in vitro ADME
Chain of CYP450 2C9 (P11712 whole entry): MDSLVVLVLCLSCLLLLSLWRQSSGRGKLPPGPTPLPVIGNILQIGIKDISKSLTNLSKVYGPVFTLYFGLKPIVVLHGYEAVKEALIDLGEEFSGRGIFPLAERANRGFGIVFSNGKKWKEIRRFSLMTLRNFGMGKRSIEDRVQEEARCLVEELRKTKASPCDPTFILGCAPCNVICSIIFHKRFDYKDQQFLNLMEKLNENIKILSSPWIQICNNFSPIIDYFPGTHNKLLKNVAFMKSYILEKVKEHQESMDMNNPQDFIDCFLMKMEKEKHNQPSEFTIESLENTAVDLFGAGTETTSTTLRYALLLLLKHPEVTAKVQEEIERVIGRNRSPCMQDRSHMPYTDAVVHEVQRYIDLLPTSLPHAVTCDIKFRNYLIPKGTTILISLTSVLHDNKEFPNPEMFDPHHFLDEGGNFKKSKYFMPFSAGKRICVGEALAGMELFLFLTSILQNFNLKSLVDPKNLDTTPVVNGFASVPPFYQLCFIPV

Cc1[nH]c2c(c(=O)c1-c1ccc(Oc3ccc(OC(F)(F)F)cc3)cc1)CCCC2 [JAG21, 2-Methyl-3-(4-(4-(Trifluoromethoxy)Phenoxy)Phenyl)-5,6,7,8-Tetrahydroquinolin-4-One]
fraction unbound [1]: 0.001
IC50 [2]: > 7.5 µM
Papp [3]: > 10 ×10⁻⁶ cm/s
effect of combination with pyrimethamine ([4]; data not shown): no antagonism was observed
effect of combination with atovaquone ([4]; isobologram): synergy
number of mice left at 42 ([5]; Experiment 1, 6 (Tafenoquine+JAG21)): 2
number of mice left at 37 ([5]; Experiment 2, 9 (Tafenoquine+JAG21)): 3
parasite burden reduced ([6]; single dose 10 mg/kg): ~ 60%
parasite burden reduced ([6]; single dose 20 mg/kg): ~ 60%
parasite burden ([6]; three doses of 10 mg/kg on first 3 days, fifth day): markedly reduced
inhibition at 0.1 µM ([7]; 0.1 μM): 36%
inhibition at 1 µM ([7]; 1 μM): 63%
IC50 [8]: 4 µM
